# Laboratory results as given in PubChem BioAssay (NCI).
# Several values for one entry are separate records, joined by “and”; a condition that tells them apart may be missing. Equal entries are not always repeated.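 Briefly, cells in 96-well plates were exposed to five compound concentrations for 48 h, and endpoints were estimated by linear interpolation. GI50 marks 50% less growth. TGI marks complete inhibition of growth.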
# Legend:
# Assay in all cases: NCI tumour cell line growth inhibition, 48 h
# UO-31 renal = test system: UO-31 renal
# U251 CNS = test system: U251 CNS
# M14 melanoma = test system: M14 melanoma
# IGROV1 ovarian = test system: IGROV1 ovarian
# SR leukemia = test system: SR leukemia
# OVCAR-3 ovarian = test system: OVCAR-3 ovarian
# MOLT-4 leukemia = test system: MOLT-4 leukemia
# MDA-MB-435 = test system: MDA-MB-435
# A498 renal = test system: A498 renal
# MDA-MB-231 breast = test system: MDA-MB-231 breast
Compound,TGI (UO-31 renal),TGI (U251 CNS),TGI (M14 melanoma),GI50 (IGROV1 ovarian),TGI (IGROV1 ovarian),GI50 (SR leukemia) [nM],TGI (SR leukemia) [µM],TGI (OVCAR-3 ovarian),GI50 (UO-31 renal) [nM],GI50 (U251 CNS) [nM],GI50 (M14 melanoma) [µM],GI50 (MOLT-4 leukemia) [µM],TGI (MOLT-4 leukemia) [µM],GI50 (MDA-MB-435) [nM],TGI (MDA-MB-435) [µM],GI50 (A498 renal) [nM],TGI (A498 renal) [µM],GI50 (OVCAR-3 ovarian) [nM],GI50 (MDA-MB-231 breast) [µM],TGI (MDA-MB-231 breast) [µM]
COc1cc(C2c3cc4c(cc3[C@@H](NCCN(C)C)C3COC(=O)[C@H]23)OCO4)cc(OC)c1O (some centres not stated),0.633 µM and 1.32 µM,0.365 µM and 1.33 µM,1.61 µM and 2.31 µM,391 nM and 1060 nM,2.39 µM and 3.57 µM,14400,> 100,2.81 µM and 3.31 µM,,,,,,,,,,,,
CC(C)(C)c1cc(C(=O)Nc2ccccc2C(=O)NCCN)cc(C(C)(C)C)c1,3.17 µM,3.42 µM,3.64 µM,,,1940,4.56,3.46 µM,1670,1890,1.91,2.2,4.86,1720,3.24,2380,6.44,1890,,
CCOc1ccccc1N=Nc1ccc2oc(=O)c(C(C)=O)cc2c1,> 100 µM,> 100 µM,> 100 µM,,> 100 µM,,,> 100 µM,,,,,> 100,,,,> 100,,,
Cc1ccc(C(=O)CC2(O)C(=O)Nc3c(C)cc(Cl)cc32)cc1 (configuration not stated),> 100 µM,> 100 µM,> 100 µM,,,,,> 100 µM,,,,,> 100,,,,,,,
O=[N+]([O-])c1ccc(C2=Nc3ccccc3S(=O)C(c3ccccc3)C2)cc1 (configuration not stated),32.2 µM,,42 µM,,36.9 µM,,,37.3 µM,,,,,57.7,,,,,,,
COc1ccc2c(c1)OC(N)=C(C#N)C2c1cc(OC)c(OC)c(OC)c1 (configuration not stated),> 100 µM,1.48 µM,> 100 µM,46.3 nM,> 51 µM,34.5,> 100,0.0648 µM,433,32.9,0.0336,0.0365,> 100,18.9,,22.2,0.148,25.3,,
COc1ccc2nc3cc(Cl)ccc3c(NCCCNCCO)c2c1,3.19 µM,2.12 µM,2.16 µM,577 nM,3.18 µM,,,2.86 µM,602,455,0.562,0.413,3.4,522,1.88,197,1.5,588,0.47,2.71
Nc1ccc2n[se]nc2c1,> 100 µM,> 100 µM,> 100 µM,,> 100 µM,,> 100,,,,,,> 100,,,,> 100,,,
CN(C)CCNC(=O)c1cccc2c1nc(-c1ccc(F)cc1)c1ccccc12,4.51 µM,16.5 µM,18.7 µM,,16.8 µM,,,18.7 µM,,,,,1.77,,,,16.2,,,
O=C1c2ccccc2C(=O)c2cc3c(cc21)CS(=O)C3,> 100 µM,> 100 µM,> 100 µM,,> 100 µM,,,> 100 µM,,,,,> 100,,,,,,,
N#CCCn1[nH]c(=O)c(Cl)c(Cl)c1=O,34.7 µM,30.3 µM,,,33.6 µM,,35.5,26.7 µM,,,,,37.4,,,,41.2,,,
CC(C)(C)c1cc(CCC(=O)Nc2ccc(Cl)cc2)[nH]c(=S)n1,> 100 µM,> 100 µM,> 100 µM,,> 100 µM,,,> 100 µM,,,,,> 100,,,,,,,
O=S1(=O)N2CN3CN(C2)CN1C3,410 µM,,355 µM,,712 µM,,,,,,,,864,,,,522,,,
COc1cc([N+](=O)[O-])c(OC)cc1-c1nc2sc(C)c(C)n2c1/C(N)=N/C(=N)N,> 100 µM,> 100 µM,> 100 µM,> 100000 nM,> 100 µM,,,,> 100000,2290,> 100,> 100,> 100,> 100000,> 100,,,,,
CC(=O)C1CCN(c2ccccc2)C1 (configuration not stated),> 100 µM,> 100 µM,> 100 µM,,> 100 µM,,> 100,> 100 µM,,,,,> 100,,,,> 100,,,
Cn1cc(/C=C\[N+](=O)[O-])c2ccccc21,> 100 µM,> 100 µM,> 100 µM,49200 nM,> 100 µM,,,> 100 µM,> 100000,36500,37.1,23.7,58.4,27700,84.7,3360,7.39,28100,23.4,78.8
CCOC(=O)C(C)(NC(=O)c1ccc(NCc2ccc3nc(NC(=O)c4ccccc4)nc(NC(=O)c4ccccc4)c3c2)cc1)C(=O)OCC,34.9 µM,21 µM,44.3 µM,,63.3 µM,,> 100,22.1 µM,,,,,> 100,,,,22.7,,,
O=C1C(c2ccccc2)=C(c2ccccc2)C(c2ccc(Cc3ccc(C4=C(c5ccccc5)C(=O)C(c5ccccc5)=C4c4ccccc4)cc3)cc2)=C1c1ccccc1,> 100 µM,> 100 µM,,,> 100 µM,,> 100,> 100 µM,,,,,> 100,,,,> 100,,,
CCOC(=O)CSc1cc(Cl)c(C)cc1S(=O)(=O)/N=C(/N=C/c1ccc([N+](=O)[O-])s1)NNC,> 100 µM,38.7 µM,56.8 µM,42700 nM,> 100 µM,,,24.7 µM,36600,17000,23.1,16.7,44.3,16300,37.6,,,10300,11.7,29.7
Cc1ccccc1N=Nc1c(O)ccc2ccccc12,> 100 µM,> 100 µM,> 100 µM,,> 100 µM,,,> 100 µM,,,,,> 100,,> 100,,,,,> 100
COc1ccccc1NC(=O)C1=C(C)NC(C)=C(C(=O)Nc2ccccc2OC)C1c1ccccc1[N+](=O)[O-],37.6 µM,29.7 µM,30 µM,,45 µM,,39.6,39.1 µM,,,,,49.5,,,,,,,
NC1NC=NC2C1N=CN2C1OC(CO)C2[O][Sn][O]C21 (configuration not stated),> 100 µM,> 100 µM,> 100 µM,> 100000 nM,> 100 µM,,,> 100 µM,> 100000,> 100000,> 100,> 100,> 100,,,> 100000,> 100,> 100000,,
